{
  "source": "patent EP0620225B1",
  "about": "“Cephalosporin derivatives” (Basilea Pharmaceutica AG, priority 1993, dated 1994)",
  "key": {"[1]": {"tested_on": "Ps. aeruginosa 5712", "experiment": "MIC, agar dilution method in Mueller Hinton agar", "assay_type": "cell-based", "conditions": "Pseudomonas aeruginosa, read-out: Minimum Inhibiting Concentration Values", "procedure": "(§1) In vitro activity was determined by minimum inhibitory concentration in a microorganism spectum by the agar dilution method in Mueller Hinton agar."}, "[2]": {"tested_on": "E. coli ATCC 25922", "experiment": "MIC, agar dilution method in Mueller Hinton agar", "assay_type": "cell-based", "conditions": "Escherichia coli, ATCC25922, read-out: Minimum Inhibiting Concentration Values", "procedure": "as §1"}, "[3]": {"tested_on": "Staph. aureus ATCC 29213", "experiment": "MIC, agar dilution method in Mueller Hinton agar", "assay_type": "cell-based", "conditions": "Staphylococcus aureus, ATCC29213, read-out: Minimum Inhibiting Concentration Values", "procedure": "as §1"}, "[4]": {"tested_on": "Str. pneumoniae 6301", "experiment": "MIC, agar dilution method in Mueller Hinton agar", "assay_type": "cell-based", "conditions": "Streptococcus pneumoniae, 6301, read-out: Minimum Inhibiting Concentration Values", "procedure": "as §1"}, "[5]": {"tested_on": "E. coli TEM-1", "experiment": "MIC, agar dilution method in Mueller Hinton agar", "assay_type": "cell-based", "conditions": "Escherichia coli, TEM1, read-out: Minimum Inhibiting Concentration Values", "procedure": "as §1"}, "[6]": {"tested_on": "Str. pyogenes 4", "experiment": "MIC, agar dilution method in Mueller Hinton agar", "assay_type": "cell-based", "conditions": "Streptococcus pyogenes, read-out: Minimum Inhibiting Concentration Values", "procedure": "as §1"}, "[7]": {"tested_on": "Prot. vulgaris ATCC 6380", "experiment": "MIC, agar dilution method in Mueller Hinton agar", "assay_type": "cell-based", "conditions": "Proteus vulgaris, ATCC6380, read-out: Minimum Inhibiting Concentration Values", "procedure": "as §1"}, "[8]": {"tested_on": "Ps. aeruginosa ATCC 27853", "experiment": "MIC, agar dilution method in Mueller Hinton agar", "assay_type": "cell-based", "conditions": "Pseudomonas aeruginosa, ATCC27853, read-out: Minimum Inhibiting Concentration Values", "procedure": "as §1"}, "[9]": {"tested_on": "Staph. aureus Smith", "experiment": "MIC, agar dilution method in Mueller Hinton agar", "assay_type": "cell-based", "conditions": "Staphylococcus aureus, read-out: Minimum Inhibiting Concentration Values", "procedure": "as §1"}, "[10]": {"tested_on": "Pseudomonas aeruginosa BA", "experiment": "Efficacy against systemic infections (septicemia) in mice", "assay_type": "in vivo", "conditions": "96 h, sc (subcutaneous) 1, 3 and 5 h after challenge, survival day 4", "method_in_brief": "(§2)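 Swiss albino mice (16–20 g) infected i.p. with 4–10× the 48-h LD50 of each strain; compound given p.o. or s.c. at 1 and 3 h post-challenge, plus 5 h for P. aeruginosa BA. Five mice per group; ED50 (mg/kg) by probit analysis of day-4 survival.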"}, "[11]": {"tested_on": "Streptococcus pyogenes 15", "experiment": "Efficacy against systemic infections (septicemia) in mice", "assay_type": "in vivo", "conditions": "96 h, Streptococcus pyogenes 15, po (orally) 1 and 3 h after challenge, survival day 4", "method_in_brief": "as §2"}, "[12]": {"tested_on": "Escherichia coli 25922", "experiment": "Efficacy against systemic infections (septicemia) in mice", "assay_type": "in vivo", "conditions": "96 h, Escherichia coli 25922, po (orally) 1 and 3 h after challenge, survival day 4", "method_in_brief": "as §2"}},
  "note": "Where a name gives a salt, the structure may show the parent alone.",
  "data": [
    {"smiles": "Nc1nc(/C(=N/OCC(=O)O)C(=O)N[C@@H]2C(=O)N3C(C(=O)O)=C(/C=C4\\CCN(CCF)C4=O)CS[C@H]23)cs1", "note": "[B, [6R-[3(E),6α,7β(Z)]]-7-[[(2-Amino-4-thiazolyl)[(carboxy-methoxy)imino]-acetyl]amino]-3-[[1-(2-fluoroethyl)-2-oxo-3-pyrrolidinylidene]methyl]-8-oxo-5-thia-1-azabicyclo[4.2.0]-oct-2-ene-2-carboxylic acid disodium salt]", "values": [
      {"measurement": "MIC", "setting": "[1]", "value": 4, "unit": "µg/mL"},
      {"measurement": "MIC", "setting": "[2]", "value": 0.0313, "unit": "µg/mL"},
      {"measurement": "MIC", "setting": "[3]", "value": 16, "unit": "µg/mL"},
      {"measurement": "MIC", "setting": "[4]", "value": 0.0313, "unit": "µg/mL"},
      {"measurement": "MIC", "setting": "[5]", "value": 0.0313, "unit": "µg/mL"},
      {"measurement": "MIC", "setting": "[6]", "value": 0.125, "unit": "µg/mL"},
      {"measurement": "MIC", "setting": "[7]", "value": "≤ 0.0156", "unit": "µg/mL"},
      {"measurement": "MIC", "setting": "[8]", "value": 4, "unit": "µg/mL"},
      {"measurement": "MIC", "setting": "[9]", "value": 8, "unit": "µg/mL"},
      {"measurement": "ED50", "setting": "[10]", "value": 3.5, "unit": "mg/kg"},
      {"measurement": "ED50", "setting": "[11]", "value": 0.5, "unit": "mg/kg"},
      {"measurement": "ED50", "setting": "[12]", "value": "< 0.1", "unit": "mg/kg"}
    ]},
    {"smiles": "C=CC1=C(C(=O)O)N2C(=O)[C@@H](NC(=O)/C(=N\\OCC(=O)O)c3csc(N)n3)[C@H]2SC1", "note": "[Cefixime, reference compound]", "values": [
      {"measurement": "ED50", "setting": "[11]", "value": 2, "unit": "mg/kg"},
      {"measurement": "ED50", "setting": "[12]", "value": 0.5, "unit": "mg/kg"}
    ]}
  ]
}
